The test system of series [1] is Dengue serotype 2 New Guinea C (NGC) strain. As to the kind of experiment: DENV-2 Huh-7 EC50 (qPCR of viral RNA in infected Huh7 cells). The format is cell-based. As to conditions: MOI=0.1, 48 hours. The essentials: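 Huh7 cells were infected 2 h at 37 °C with DENV-2 NGC at MOI 0.1, then plated with graded compound doses (0.25% DMSO) in triplicate for 48 h. Viral RNA was quantified by duplex TaqMan qPCR against GAPDH. EC50 was normalized to positive and no-compound controls.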

The test system of series [2] is Human hepatocarcinoma 7 (Huh7) cells. Put plainly: Huh-7 CC50 (CellTiter Glo viability). Format: cell-based. As to conditions: 48 hours. An outline of the steps:
(§1)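 Huh7 cells in 10% FCS DMEM plated at 1-2×10^4 per well in triplicate with graded compound doses, 0.25% DMSO throughout. Viability after 48 hours by CellTiter Glo luminescence, normalized to no-compound and no-cell controls; CC50 from curve fitting.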

For a further series, the system named is RSV strain A2. Put plainly: RSV HEp-2 EC50 (infectious cytopathic cell protection assay). As to conditions: read-out: RSV Hep-2 EC50. The format is cell-based, RSV strain A2; HEp-2 cells. An outline of the steps: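 HEp-2 cells (50,000/mL) infected with titered RSV stock, added onto compound in 3-fold serial dilutions; 4 days at 37 °C. Cell viability read by CellTiter-Glo luminescence; percent inhibition of virus-induced cytopathic effect derived from remaining viability against 0% and 100% inhibition controls.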
(In general: Damage to the host cells serves as the signal in cytopathic effect assays.)

For a further series, the system named is uninfected HEp-2 cells. Put plainly: HEp-2 CC50 (cytotoxicity in uninfected HEp-2 cells). The format is cell-based. As to conditions: 4 days, CellTiter Glo. On the procedure: (§2) Instead, an uninfected cell mixture at the same density is added at 20 uL/well to plates containing prediluted compounds, also at 100 nL/sample. Assay plates are then incubated for 4 days followed by a cell viability test using the same CellTiter Glo reagent addition and measurement of luminescent readouts. Untreated cell and cells treated at 2 μM puromycin (Sigma, St. Louis, MO) serve as 100% and 0% cell viability control, respectively.
(ATP-based viability assays read luminescence as a measure of living cells.)

Series [3] deals with Dengue 2, New Guinea strain (NGC). Put plainly: DENV-2 moDC EC50 (qPCR of viral RNA in infected moDCs). The format is cell-based, New Guinea strain (NGC); human moDCs. As to conditions: Dengue virus, human moDCs infected with Dengue 2 NGC, MOI=0.1, 48 hours. On the procedure:
Example 82. DENV-2 moDC EC50
Human monocyte-derived dendritic cells (moDCs) were derived from CD14+ monocytes (AllCells) cultured in Human Mo-DC Differentiation medium containing GM-CSF and IL-4 (Miltenyi Biotec). On day 7, moDCs were harvested by mechanical disruption, washed and suspended in serum-free RPMI. moDCs were infected with Vero-derived Dengue 2, New Guinea strain (NGC) at a MOI=0.1 for two hours in serum-free RPMI with gentle agitation at 37° C. Cells were washed and resuspended in 10% serum-containing RPMI (Gibco, supplemented with sodium pyruvate, NEAA, Penicillin-Streptomycin). […] were plated in triplicate in 96-well plates with compounds dispensed at graded doses (Hewlett-Packard D300 Digital Dispenser). All wells were normalized to 0.25% DMSO. At 48 hours, cells were washed with 1×PBS and all supernatants removed. Total RNA was extracted using RNEasy 96 plates (Qiagen) and used to generate first-strand cDNA using XLT cDNA 5× Supermix (QuantaBio). cDNA was used as a template in a Taqman qPCR duplex reaction specific to DENV2 viral and GAPDH gene expression. EC50 values were determined using Prism Graphpad software, with normalization to a positive control and no compound negative control wells.
(In qPCR the cycle at which signal appears reflects the starting amount.)

Series [4] can be described thus: moDC CC50 (CellTiter Glo viability). The format is cell-based, Human. As to conditions: human, uninfected moDCs. The method, then:
Human monocyte-derived dendritic cells (moDCs) were derived from CD14+ monocytes (AllCells) cultured in Human Mo-DC Differentiation medium containing GM-CSF and IL-4 (Miltenyi Biotec). On day 7, moDCs were harvested by mechanical disruption, washed and cultured in triplicate at […] cells/well in 96-well plates with compounds dispensed at graded doses (Hewlett-Packard D300 Digital Dispenser). All wells were normalized to 0.25% DMSO. After 48 hours, CellTiter Glo (Promega) was added and incubated for 10 minutes at room temp before reading on a luminometer. % viability curves were calculated against no compound and no cell control wells. CC50 values were determined using Prism Graphpad software.

Series [5] is described as follows: Huh-7 CC50 (CellTiter Glo viability). The format is cell-based, Human. As to conditions: human, Huh7 hepatocarcinoma cells. An outline of the steps: as §1
Series [6] in a line: HEp-2 CC50 (cytotoxicity in uninfected HEp-2 cells). As to conditions: human, CellTiter Glo. Format: cell-based. The method, then: as §2
[7] abbreviates: Huh7 cells infected with Dengue serotype 2 NGC.
Where [8] appears, read: HEp-2 cells infected with RSV A2, 4 days, Cell TiterGlo.
[9] abbreviates: Dengue virus, DENV2, Huh-7, Huh7 cells infected with Dengue serotype 2 NGC.
[10] abbreviates: human respiratory syncytial virus, HEp-2, 96 h.

pEC50: −log10 of the molar value. Like-named read-outs stand apart in the source and are kept apart here.

A word on the pEC50: it is the negative decadic logarithm of the EC50, by convention in mol/L. As a reminder, the CC50 is the concentration giving 50% cytotoxicity. Read a high CC50 as better tolerance by the cells.

As for `CCOC(=O)[C@H](C)NP(=O)(OC[C@@]1(CF)O[C@@H](c2ccc3c(N)ncnn23)[C@H](O)[C@@H]1O)Oc1ccc(C(C)(C)C)cc1` (single isomer, unassigned) [Example 48], the pEC50 in series [1] (setting [7]) was 6.41; with RSV strain A2 (setting [8]) it was 6.67. The results for the CC50 (in series [2]; with uninfected HEp-2 cells) were 15.4 µM and 30.2 µM, respectively.
For the compound `CCC(=O)O[C@H]1[C@H](c2ccc3c(N)ncnn23)O[C@](CF)(COP(=O)(N[C@@H](C)C(=O)OC)Oc2ccccc2)[C@H]1OC(=O)CC` (stereo partly drawn) [Example 33, (2R,3S,4S,5S)-5-(4-aminopyrrolo[2,1-f][1,2,4]triazin-7-yl)-2-(fluoromethyl)-2-((((((S)-1-methoxy-1-oxopropan-2-yl)amino)(phenoxy)phosphoryl)oxy)methyl)tetrahydrofuran-3,4-diyl dipropionate], the pEC50 in series [1] (setting [7]) is 6.09; in the series with RSV strain A2 (setting [8]) it was 5.91. The half-maximal cytotoxic concentration (CC50) was over 25 µM in series [2] and 43.3 µM in the series with uninfected HEp-2 cells.
In the same order, the values of `CC(=O)O[C@H]1[C@H](c2ccc3c(N)ncnn23)O[C@](CF)(COP(=O)(N[C@@H](C)C(=O)OC2CCCCC2)Oc2ccccc2)[C@H]1OC(C)=O` (stereo partly drawn) [Example 15, (2R,3S,4S,5S)-5-(4-aminopyrrolo[2,1-f][1,2,4]triazin-7-yl)-2-((((((S)-1-(cyclohexyloxy)-1-oxopropan-2-yl)amino)(Phenoxy)phosphoryl)oxy)methyl)-2-(fluoromethyl)tetrahydrofuran-3,4-diyl diacetate] are 5.79, 5.84, over 25 µM and over 50 µM.
Take `CCOC(=O)[C@H](C)NP(=O)(OC[C@@]1(CF)O[C@@H](c2ccc3c(N)ncnn23)[C@H](O)[C@@H]1O)Oc1ccc(C(C)(C)C)cc1` (single isomer, unassigned) [Example 49]: the pEC50 in series [1] (setting [7]) was 6.48; with RSV strain A2 (setting [8]), 6.65. Besides, the cytotoxic concentration (CC50) was over 25 µM in series [2] and over 100 µM in the series with uninfected HEp-2 cells.
For the compound `C[C@H](NP(=O)(OC[C@@]1(CF)O[C@@H](c2ccc3c(N)ncnn23)[C@H](O)[C@@H]1O)Oc1ccccc1)C(=O)OC1CCC1` (stereo partly drawn) [Example 71, cyclobutyl ((((2R,3S,4R,5S)-5-(4-aminopyrrolo[2,1-f][1,2,4]triazin-7-yl)-2-(fluoromethyl)-3,4-dihydroxytetrahydrofuran-2-yl)methoxy)(phenoxy)phosphoryl)-L-alaninate], the pEC50 in series [3] is 6.84; in series [1] (setting [9]) it was 6.53; in the series on RSV strain A2 (setting [10]), 6.54. Also, the CC50 at 48 h in series [4] turned out to be 8.8 µM; in series [5], 13 µM. The compound also showed a CC50 at 4 days in series [6] of over 100 µM.
Take `CC(C)OC(=O)[C@H](C)N[P@](=O)(OC[C@@]1(CF)O[C@@H](c2ccc3c(N)ncnn23)[C@H](OC(=O)C(C)C)[C@@H]1OC(=O)C(C)C)Oc1ccccc1` [Example 23, (2R,3S,4S,5S)-5-(4-aminopyrrolo[2,1-f][1,2,4]triazin-7-yl)-2-(fluoromethyl)-2-((((S)-(((S)-1-isopropoxy-1-oxopropan-2-yl)amino)(phenoxy)phosphoryl)oxy)methyl) tetrahydrofuran-3,4-diyl bis(2-methylpropanoate)]: the negative-log EC50 (pEC50) in series [3] was 6.41; in series [1] (setting [9]) it was 5.74; with RSV strain A2 (setting [10]), 5.36. For the same compound, the figures for the CC50 at 48 h in series [4] and in series [5] were 10.9 µM and over 23.2 µM, respectively. For the same compound, half-maximal cytotoxicity in series [6] (CC50 at 4 days) was put at 26.3 µM.
Regarding `CCC(C)(C)COC(=O)[C@H](C)NP(=O)(OC[C@@]1(CF)O[C@@H](c2ccc3c(N)ncnn23)[C@H](O)[C@@H]1O)Oc1ccccc1` (stereo partly drawn) [Example 7, 2,2-dimethylbutyl ((((2R,3S,4R,5S)-5-(4-aminopyrrolo[2,1-f][1,2,4]triazin-7-yl)-2-(fluoromethyl)-3,4-dihydroxytetrahydrofuran-2-yl)methoxy)(phenoxy)phosphoryl)-L-alaninate], the negative-log EC50 (pEC50) in series [3] is 7.40; in series [1] (setting [9]) it was 6.80; in the series with RSV strain A2 (setting [10]), 7.62. Besides, the CC50 at 48 h is 6.69 µM in series [4] and over 25 µM in series [5]. Also, in series [6], the CC50 at 4 days was over 100 µM.
In the case of `CCOCCOCCOC(=O)[C@H](C)NP(=O)(OC[C@@]1(CF)O[C@@H](c2ccc3c(N)ncnn23)[C@H](O)[C@@H]1O)Oc1ccccc1` (stereo partly drawn) [Example 45, 2-(2-ethoxyethoxy)ethyl ((((2R,3S,4R,5S)-5-(4-aminopyrrolo[2,1-f][1,2,4]triazin-7-yl)-2-(fluoromethyl)-3,4-dihydroxytetrahydrofuran-2-yl)methoxy)(phenoxy)phosphoryl)-L-alaninate], the pEC50 in series [3] is under 5.30; in series [1] (setting [9]), 5.34; with RSV strain A2 (setting [10]) it was 4.66. Besides, the CC50 at 48 h in series [4] and in series [5] was over 25 µM in each case. This compound also registered a CC50 at 4 days in series [6] of over 100 µM.
Regarding `C[C@H](NP(=O)(OC[C@@]1(CF)O[C@@H](c2ccc3c(N)ncnn23)[C@H](O)[C@@H]1O)Oc1ccccc1)C(=O)OC1CCCCC1` (stereo partly drawn) [Example 14, cyclohexyl ((((2R,3S,4R,5S)-5-(4-aminopyrrolo[2,1-f][1,2,4]triazin-7-yl)-2-(fluoromethyl)-3,4-dihydroxytetrahydrofuran-2-yl)methoxy)(phenoxy)phosphoryl)-L-alaninate], the results for the pEC50 (in series [3]; in series [1] (setting [9]); with RSV strain A2 (setting [10])) were 6.78, 6.69 and 6.73, respectively. Moreover, the CC50 at 48 h was over 7.76 µM in series [4] and over 25 µM in series [5]. The same compound yielded a CC50 at 4 days in series [6] of over 100 µM.
Regarding `CC(C)C(=O)O[C@H]1[C@H](c2ccc3c(N)ncnn23)O[C@](CF)(COP(=O)(N[C@@H](C)C(=O)OC2CCCCC2)Oc2ccccc2)[C@H]1OC(=O)C(C)C` (single isomer, unassigned) [Example 63], the figures for the pEC50 (in series [3]; in series [1] (setting [9]); with RSV strain A2 (setting [10])) were 6.49, 6.22 and 5.62, respectively. The CC50 at 48 h in series [4] came out at 5.6 µM; in series [5], 10.7 µM. In addition, the midpoint of cytotoxicity in series [6], the CC50 at 4 days, lay at 19.1 µM.
On to `CCCCCCOC(=O)[C@H](C)N[P@@](=O)(OC[C@@]1(CF)O[C@@H](c2ccc3c(N)ncnn23)[C@H](O)[C@@H]1O)Oc1ccccc1` (single isomer, unassigned) [Example 18], for which the results for the pEC50 (in series [3]; in series [1] (setting [9]); with RSV strain A2 (setting [10])) were 6.58, 6.42 and 5.89, respectively. Besides, the CC50 at 48 h in series [4] was over 10.5 µM; in series [5] it was over 25 µM. The compound further yielded a half-maximal cytotoxic concentration (CC50) at 4 days in series [6] of over 100 µM.
Take `CC(C)OC(=O)[C@H](C)N[P@](=O)(OC[C@@]1(CF)O[C@@H](c2ccc3c(N)ncnn23)[C@H](O)[C@@H]1O)Oc1ccccc1` (single isomer, unassigned) [Example 12]: the negative-log EC50 (pEC50) in series [3] was 6.12; in series [1] (setting [9]), 6.34; in the series with RSV strain A2 (setting [10]) it was 5.86. The half-maximal cytotoxic concentration (CC50) at 48 h in series [4] and in series [5] was over 25 µM each time. Also, the CC50 at 4 days in series [6] is over 100 µM.

Values taken from patent publication US12030903B2, “Antiviral compounds” (Gilead Sciences, Inc., priority 2020, dated 2024).
